Reference: US9629816B2, “Small molecule therapeutic compounds targeting thioesterase deficiency disorders and methods of using the same” (The United States of America, as represented by the …, priority 2011, dated 2017)

Legend:
[1] = Solubility in tissue culture media; format: physicochemical
[2] = system: INCL fibroblasts; assay: MTT viability of cultured INCL fibroblasts; format: cell-based, human; conditions: 48 hours of treatment; viability as percent of untreated control (FIG. 4A-C)
Description: Ten out of the twelve HA-derivative compounds listed in Table 1 were tested to determine whether they adversely affected the viability of cultured cells from INCL patients. […] Briefly, following treatment with HA-derivatives INCL cells were incubated with Thiazolyl Blue Tetrazolium […] for 4 hours at 37° C. Formazan crystals thus formed were dissolved in acidified isopropanol and absorption was measured at 570 nm. Viability was expressed as percent of untreated control.
Briefly, normal fibroblasts (GM 00498) were obtained from the Coriell Institute of Medical Research, USA. PPT1-deficient INCL fibroblasts were isolated from skin biopsy samples of INCL patients admitted to an ongoing clinical protocol (#01-CH-0086) approved by the Institutional Review Board (IRB) of the National Institute of Child Health and Human Development (NICHD) at the National Institute of Health (NIH). […] The fibroblasts were cultured in the presence or absence of varying concentrations of each of the HA-derivatives for 48 hours, after which the viability of the cells was determined using the MTT-Cell Viability Assay by T. Mossman, (Rapid colorimetric assay for cellular growth and survival. J. Immunol. Method. 65 (1983) 55-63).

[3] = Cleavage of thioester linkage in [14C]palmitoyl-CoA, release of free [14C]palmitate (TLC, autoradiography); format: biochemical; conditions: varying concentrations; various incubation times; [14C]palmitate production
Description: It has been reported that thioester linkages in s-acylated proteins are labile, and that compounds having nucleophilic properties are able to disrupt such linkages. Thus, the ability of derivatives of hydroxylamine to disrupt thioester linkages in s-acylated proteins was tested. Twelve HA-derivatives, described in Table 1, were screened for their ability to cleave thioester linkage in [^14C]palmitoyl˜CoA (a model thioester substrate of PPT1), mediating the release of free [^14C]palmitic acid, a process depicted in FIG. 2. […] [^14C]-palmitoyl-CoA was incubated for 1 hour with each of the HA derivatives and the reaction mixture was resolved by thin layer chromatography (TLC) followed by autoradiography. The free [^14C]-palmitate bands were visible and quantitated by densitometric analysis of the bands.

solubility in tissue culture media [1] | Compound | dose- and time-dependence of thioester linkage cleavage in [14C]palmitoyl-CoA [3] | further results
insoluble in tissue culture media | ON(Cc1ccccc1)Cc1ccccc1 [N,N-dibenzylhydroxylamine, N,N-Dibenzylhydroxylamine] |  | 
 | O=C(c1ccccc1)N(O)c1ccccc1 [N-Benzoyl-N-phenyl hydroxylamine] |  | toxicity / viability of INCL cells (MTT) [2]: all ten compounds except N-Benzoyl-N-phenyl hydroxylamine are non-toxic
insoluble in tissue culture media | CC(ON(C(c1ccccc1)C(C)C)C(C)(C)C)c1ccc(CCl)cc1 (centres unmarked) [N-tert-Butyl-O-[1-[4-(chloromethyl)phenyl]ethyl]-N-(2-methyl-1-phenylpropyl)hydroxylamine] |  | 
 | ONCc1ccccc1 [benzyl-HA, N-Benzylhydroxylamine] | cleaved the thioester linkage in a dose-dependent and time-dependent manner | 
 | CNO [methyl-HA, N-Methylhydroxylamine] | cleaved the thioester linkage in a dose-dependent and time-dependent manner | 
